Measured values: patent US20230212221A1, “Novel Therapeutic Uses of Mu-Opiate Receptor Peptides” (Cytogel Pharma, LLC, priority 2012, published 2023)
Read-outs that look alike come from different tables or passages of the source.

Tests used:
[1] = target: T1, human mu-opioid receptor (hOPRM1) (Homo sapiens, UniProt P35372); test: cell-based
T1 construct: expressed in transfected cells
Method: The effect of mu-opioid receptor agonists on beta-arrestin recruitment is determined using the PathHunter™ beta-arrestin assay. Briefly, PathHunter™ cell lines expressing human mu-opioid receptor (hOPRM1) are seeded in 384-well microplates at a density of 5,000 cells/well in a total volume of 20 μl, and are allowed to adhere and recover overnight. […] The cells are incubated with the mu-opioid receptor agonist at 37° C. for 90 minutes. The experiment is performed in duplicate.
Microplates are read following signal generation with a PerkinElmer Envision™ instrument for chemiluminescent signal detection.
Percentage activity is calculated using the following formula: % Activity=100%×(mean RLU (relative luminescence unit) of test sample−mean RLU of vehicle control)/(mean MAX RLU control ligand −mean RLU of vehicle control)).

[2] = target: T1, human mu-opioid receptor (hOPRM1); test: cell-based; remark: listed apart in the source
Method: The effect of mu-opioid receptor agonists on the inhibition of cAMP production is determined using the […]. Briefly, cAMP Hunter™ cell lines expressing human mu-opioid receptor (hOPRM1) are seeded in 384-well microplates at a density of 10,000 cells/well in a total volume of 20 μl, and are allowed to adhere and recover overnight. […] The cells are incubated with the mu-opioid receptor agonist in the presence of 20 μM forskolin at 37° C. for 30 minutes. The experiment is performed in duplicate.
Assay signal is generated through incubation with 20 μL cAMP XS+ED/CL lysis cocktail for one hour followed by incubation with 20 μL cAMP XS+EA reagent for three hours at room temperature. Microplates are read following signal generation with a PerkinElmer Envision™ instrument for chemiluminescent signal detection.
Percentage activity is calculated using the following formula: % Activity=100%×(1−(mean RLU of test sample−mean RLU of MAX control)/(mean RLU of vehicle control−mean RLU of MAXcontrol).

delta receptors = delta receptors (Homo sapiens, UniProt P41143); details: relative to mu-opiate receptor binding
Chain of delta receptors (P41143 whole entry): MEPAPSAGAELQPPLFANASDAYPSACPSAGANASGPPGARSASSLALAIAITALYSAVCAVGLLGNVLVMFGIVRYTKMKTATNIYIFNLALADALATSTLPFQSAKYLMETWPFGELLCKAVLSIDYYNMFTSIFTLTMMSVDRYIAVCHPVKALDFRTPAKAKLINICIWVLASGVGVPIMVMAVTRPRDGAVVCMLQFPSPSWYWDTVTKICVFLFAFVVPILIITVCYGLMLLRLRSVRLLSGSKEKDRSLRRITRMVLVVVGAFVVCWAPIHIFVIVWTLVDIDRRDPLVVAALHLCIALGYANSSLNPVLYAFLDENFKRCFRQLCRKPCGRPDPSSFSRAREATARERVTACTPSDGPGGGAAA

T1 sequence (P35372 whole entry): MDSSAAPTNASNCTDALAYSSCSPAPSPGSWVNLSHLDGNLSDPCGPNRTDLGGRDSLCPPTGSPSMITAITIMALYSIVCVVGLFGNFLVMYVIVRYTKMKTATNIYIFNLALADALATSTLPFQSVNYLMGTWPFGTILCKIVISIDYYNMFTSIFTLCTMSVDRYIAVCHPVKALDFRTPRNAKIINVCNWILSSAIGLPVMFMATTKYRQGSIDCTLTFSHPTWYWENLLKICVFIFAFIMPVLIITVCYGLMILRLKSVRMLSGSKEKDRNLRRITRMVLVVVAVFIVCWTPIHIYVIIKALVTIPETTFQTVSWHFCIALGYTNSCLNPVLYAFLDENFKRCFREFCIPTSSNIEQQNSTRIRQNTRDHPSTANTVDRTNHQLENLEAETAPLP

NC(Cc1ccc(O)cc1)C(=O)NC1CCCCNC(=O)C(Cc2ccccc2)NC(=O)C(Cc2c[nH]c3ccccc23)NC1=O [CYT-1010, H-Tyr-c-[D-Lys-Trp-Phe]]
EC50 ([1]; PathHunter cells expressing hOPRM1, 90 minutes at 37° C., duplicate, read-out: EC50 (nM), beta-arrestin recruitment): 13.1 nM | Max Percent Activity, beta-arrestin recruitment ([1]; normalized to control ligand and vehicle, PathHunter cells expressing hOPRM1): 121.2% | EC50 ([2]; cAMP Hunter cells expressing hOPRM1, 20 μM forskolin, 30 minutes at 37° C., duplicate, read-out: EC50 (nM), inhibition of cAMP production): 0.0053 nM | Max Percent Activity, inhibition of cAMP production ([2]; normalized to control ligand and vehicle, 20 μM forskolin): 98.350%

H-Tyr-Pro-Trp-Phe-NH2 [SEQ ID NO:1]
fold weaker binding to delta receptors (delta receptors): over 4,000 fold

met-enkephalin [reference compound]
Max Percent Activity, beta-arrestin recruitment [1]: 100.1% | Max Percent Activity, inhibition of cAMP production [2]: 102.800%
